Results: patent US4643990A, “N-acyl peptide, processes for their preparation and pharmaceutical compositions thereof” (Fujisawa Pharmaceutical Co., Ltd., priority 1982, dated 1987)

Tests used:
[1] = test system: complement serum (guinea pig complement); experiment: Anticomplementary activity (inhibition of complement hemolysis of sensitized erythrocytes); assay type: biochemical; details: concentration inhibiting hemolysis of sensitized erythrocytes by 50%, 37° C., OD541
Protocol: The anticomplementary activity of the test compound was measured according to the test method as described in Experimental Immunochemistry, edited by E. A. Kabat and M. M. Mayer, 2nd ed., Springfield, III: C. C. Thomas (1961) pages 133-240.
A mixture of 1 ml of a 5-fold diluted solution of a Veronal buffer solution containing 1.5×10^-4 M Ca^2+ and 5×10^-4 M Mg^2+ and isotonic gelatin, 1.5 ml of complement serum (guinea pig complement) diluted 400 times with a physiological saline solution and 0.05 ml of a solution of a test compound (in this case, a test compound was dissolved in a physiological saline solution) was incubated at 37° C. for 30 minutes. To the said mixture there was added 0.4 ml of sensitized erythrocytes suspension containing 5×10^8 cells/ml and said mixture was incubated at 37° C. further for 60 minutes. After the incubation, the mixture was centrifuged in 3,000 rpm at 4° C. for 10 minutes.
The results are expressed in Table 1 as the concentration of each drugs inhibiting the hemolysis activity by 50% (IC50).

[2] = test system: blood clot from diluted fresh rabbit blood (urokinase, bovine thrombin); experiment: Fibrinolytic activity (modified diluted whole blood clot lysis time method); assay type: biochemical; details: test compound 300 μg/ml; time for complete lysis of diluted rabbit blood clot with urokinase, 37° C.
Protocol: The enhancement of the fibrinolytic activity of the test compounds was measured according to the modified diluted whole blood clot lysis time method described in
G. R. Fearnley, G. V. Balmforth, E. Fearnley: Clin. Sci. 16, 645-650 (1957) I. S. Chohan et al: Thrombos. Diathes. Haemorrh. 33, 226 (1975) and I. M. Nilsson et al: Handbook of Experimental Pharmacology 46, 110.
Fresh rabbit blood was diluted 20 times with 1/15M phosphate buffer (pH 7.4). A mixture of 400 μl of the diluted blood solution and 50 μl of a test compound (300 μg/ml) was incubated at 37° C. for 30 minutes. To the mixture were added 50 μl of urokinase solution (100 IU/ml) and 50 μl of bovine thrombin (100 N.I.H. u/ml). The clot produced in tubes was incubated at 37° C. for various periods of time. At the end of each incubation interval (15 minutes interval), 2.5 ml of distilled water was added to lyse erythrocytes released from clotted blood and absorbance (OD541) of the supernatant separated by centrifugation (3,000 rpm for 10 minutes) from the reaction mixture was measured. The fibrinolytic activity of the test compound was determined by the time in minutes needed for the complete lysis of the blood clot.
In the absence of a test compound, it took more than 2 hours to lyse blood clot in the above condition. However, blood clot was lysed in the presence of test compounds after 15 minutes (symbol: ++) and 45 minutes (symbol: +) incubation, respectively. Samples which were incapable of lysing blood clot within 1 hour incubation were expressed as symbol (-).

SMILES	Anticomplementary activity (IC50) [1] [µg/mL]	Fibrinolytic activity [2]
CCCCCCCCCCCCCCCC(=O)OC(CCCCCCCCCCCCCCC)CC(=O)N[C@@H](CCC(=O)O)C(=O)N[C@@H](CCC(=O)O)C(=O)O (stereo partly drawn) [19 (2), N-[N-(3-hexadecanoyloxyoctadecanoyl)-L-glutamyl]-L-glutamic acid]	5.28	–
CCCCCCCCCCCCCCCC(=O)OC(CCCCCCCCCCCCCCC)CC(=O)N[C@H](C(=O)N[C@@H](CCC(=O)O)C(=O)O)C(C)C (stereo partly drawn) [Example 3, N-[N-(3-hexadecanoyloxyoctadecanoyl)-L-valyl]-L-glutamic acid]	1.89	++ (blood clot was lysed in the presence of test compounds after 15 minutes (symbol: ++))
CCCCCCCCCCCCCCCC(=O)OC(CCCCCCCCCCCCCC)C(=O)N[C@H](C(=O)N[C@@H](CCC(=O)O)C(=O)O)C(C)C (stereo partly drawn) [Example 6, N-[N-(2-hexadecanoyloxyhexadecanoyl)-L-valyl]-L-glutamic acid]	0.49	+ (45 minutes (symbol: +) incubation)
CCCCCCCCC=CCCCCCCCC(=O)OC(CCCCCCCC=CCCCCCCCC)CC(=O)N[C@H](C(=O)N[C@@H](CCC(=O)O)C(=O)O)C(C)C (stereo partly drawn) [Example 7, N-[N-[3-(9-octadecenoyloxy)-11-eicosenoyl]-L-valyl]-L-glutamic acid]	3.4	+ (45 minutes (symbol: +) incubation)
CCCCCCCCCCCCCCCC(=O)OC(CCCCCCCCCCCCCCC)CC(=O)N[C@H](C(=O)N[C@@H](CCC(=O)O)C(=O)O)[C@@H](C)O (stereo partly drawn) [Example 8 (2), N-[N-(3-hexadecanoyloxyoctadecanoyl)-L-threonyl]-L-glutamic acid]	0.67	++ (blood clot was lysed in the presence of test compounds after 15 minutes (symbol: ++))
CCCCCCCCCCCCCCCC(=O)OC(CCCCCCCCCCCCCCC)CC(=O)NCCC(=O)N[C@H](C(=O)N[C@@H](CCC(=O)O)C(=O)O)[C@@H](C)O (stereo partly drawn) [Example 10, N-[N-[N-(3-hexadecanoyloxyoctadecanoyl)-β-alanyl]-L-threonyl]-L-glutamic acid]	1.00	+ (45 minutes (symbol: +) incubation)
CCCCCCCCCCCCCCCC(=O)OC(CCCCCCCCCCCCCCC)CC(=O)NCCCCC(=O)N[C@@H](CCC(=O)O)C(=O)O (stereo partly drawn) [Example 14, N-[N-(3-hexadecanoyloxyoctadecanoyl)-5-aminopentanoyl]-L-glutamic acid]	0.52	–
CCCCCCCCCCCCCCCC(=O)OC(CCCCCCCCCCCCCCC)CC(=O)NCCC(=O)N[C@@H](CC(=O)O)C(=O)O (stereo partly drawn) [Example 18, N-[N-(3-hexadecanoyloxyoctadecanoyl)-β-alanyl]-L-aspartic acid]	0.34	–
CCCCCCCCCCCCCCCC(=O)OC(CCCCCCCCCCCCCCC)CC(=O)N[C@@H](CCCCN)C(=O)N[C@@H](CCC(=O)O)C(=O)O (stereo partly drawn) [Example 21, N-[N-(3-hexadecanoyloxyoctadecanoyl)-L-lysyl]-L-glutamic acid]	–	+ (45 minutes (symbol: +) incubation)
Br.Br.CCCCCCCCCCCCCCCC(=O)OC(CCCCCCCCCCCCCCC)CC(=O)N[C@@H](CCCCN)C(=O)N[C@@H](CCCCN)C(=O)O (stereo partly drawn) [Example 36, N-[N-(3-hexadecanoyloxyoctadecanoyl)-L-lysyl]-L-lysine dihydrogen bromide]	9.5	–
CCCCCCCCCCCCCCCC(=O)OC(CCCCCCCCCCCCCCC)CC(=O)N[C@H](C(=O)NCCS(=O)(=O)O)C(C)C (stereo partly drawn) [Example 37, N-[N-(3-hexadecanoyloxyoctadecanoyl)-L-valyl]taurine]	0.13	+ (45 minutes (symbol: +) incubation)
CCCCCCCCCCCCCCCC(=O)OC(CCCCCCCCCCCCCCC)CC(=O)N[C@@H](CCC(=O)O)C(=O)N[C@H](C(=O)O)[C@@H](C)O (stereo partly drawn) [Example 39, N-[N-(3-hexadecanoyloxyoctadecanoyl)-L-glutamyl]-L-threonine]	1.67	–
CCCCCCCCCCCCCCCC(=O)OC(CCCCCCCCCCCCCCC)CC(=O)N[C@H](C(=O)N[C@H](C(=O)O)[C@@H](C)O)[C@@H](C)O (stereo partly drawn) [Example 42, N-[N-(3-hexadecanoyloxyoctadecanoyl)-L-threonyl]-L-threonine]	0.06	++ (blood clot was lysed in the presence of test compounds after 15 minutes (symbol: ++))
CCCCCCCCCCCCCCCC(=O)OC(CCCCCCCCCCCCCCC)CC(=O)N[C@H](C(=O)N[C@@H](CCC(=O)OC)C(=O)OC)[C@@H](C)O (stereo partly drawn) [Example 43, dimethyl N-[N-(3-hexadecanoyloxyoctadecanoyl)-L-threonyl]-L-glutamate]	30	–
